The subject of this assay is CEM cells HIV-1 protection, formazan growth assay. Nature of the assay: NCI AIDS Antiviral Assay. Particulars: for pIC50: measured here: growth of uninfected CEM cells. An outline of the steps:
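Screen of anti-HIV-1 activity in human CEM cells using a formazan-based growth measurement at five drug concentrations. Hits with 50% or greater protection were repeated, and confirmation required reproducible complete protection.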

The structures appear in SMILES notation. pEC50, pIC50: −log10 of the molar value. Several values for one entry are separate records, joined by “and”; a condition that tells them apart may be missing. Identical values can stand only once. Activity calls are given as the source filed them.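 How the source made its calls: active means compounds giving half or more protection of infected cells from virus-caused growth loss, again on retest; inactive means the rest.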 Where a SMILES comes first, the peptide text is derived from it. [ ]: non-standard residue; d: D form. The star is where a group is joined. hSer = N[CH](CCO)C(=O)O; Boc = CC(C)(C)OC(=O)*

Usually pEC50 stands for the negative decadic logarithm of the EC50, by convention in mol/L. For orientation: pIC50 means the negative decadic logarithm of the IC50, by convention in mol/L. A low value points to a large IC50. Turning to `C/C=C(/C)C(=O)O[C@H]1[C@H](O)CC(c2ccc3c(c2O)C(O)=C2C(=O)C4(OC)C(O)=C(C(N)=O)C(=O)[C@H](CC(=O)c5ccccc5O)C4CC2[C@@]3(C)OC)O[C@@H]1C` (some centres not stated), the pEC50 is < 5.70 and the pIC50 is 9.20.

Consider `COc1cc(C2c3c(ccc4ccccc34)C(=O)C3CCC(=O)N32)cc(OC)c1OC` (configuration not stated), for which the pEC50 was < 4.30 and the pIC50 was 4.74.

Consider `O=Nc1sc(=S)n(N2CCCCC2)c1O`, for which the pEC50 is < 3.70 and the pIC50 is 3.98.

As to `CCCCCCCCCCCCOC(=S)NC`, the result was inactive.

Regarding `CC(C)=CCSC1CC2C(CC1(C)O)C2(C)C` (configuration not stated), the pEC50 was < 3.70; the pIC50 was 3.96 and 3.95.

With `Cc1ccc2c(c1)C(=O)c1cc(C)cc(C(=O)O)c1-2`, the negative logarithm of the EC50 (pEC50) was < 3.70 and the pIC50 was < 3.70.

As for `O=C1CCC2CCc3cccc4oc1c2c34` (configuration not stated), the outcome was inactive.

For `CC1(CO)OC(n2cnc3c(N)ncnc32)C(O)C1O` (configuration not stated), the pEC50 is < 3.05 and the pIC50 is < 3.05.

Take `O=[N+]([O-])c1ccc2nc(-c3ccccn3)c(-c3ccccn3)nc2c1`: the pEC50 was < 3.70 and the negative logarithm of the IC50 (pIC50) was < 3.70.

`Cc1cn(CC2=NCCN2)c(=O)[nH]c1=O`: the pEC50 was < 3.70 and the pIC50 was < 3.70.

Turning to `COc1ccc2[nH]cc(CCNC(C)=O)c2c1`, the pEC50 was < 3.70 and the pIC50 is < 3.70.

As to `COc1ccccc1NC(=S)N/N=C/c1c(C)n(C)n(-c2ccccc2)c1=O`, the pEC50 is < 3.70 and the negative logarithm of the IC50 (pIC50) was 4.19.

`FC(F)(F)c1ccc(C=NC23CC4CC(CC(C4)C2)C3)cc1`: the pEC50 was < 4.21 and the negative logarithm of the IC50 (pIC50) is < 4.21.

On to `OC12CCC3(O)c4ccccc4C3C1c1ccccc12` (configuration not stated), for which the pEC50 is < 3.70 and the negative logarithm of the IC50 (pIC50) was < 3.70.

With `O=C1C(=O)C(Br)(Br)C(Br)=C1Br`, the outcome was inactive.

As for `CCOC(=O)c1nc2cc(F)cc(F)c2[nH]c1=O`, the pEC50 was < 3.70 and the negative logarithm of the IC50 (pIC50) is 3.79.

`COC(=O)C12OC(C)(C(CC(=O)OC(C)(C)C)C1=O)C1C(=O)N(c3ccccc3)C(=O)C12` (configuration not stated): the pEC50 was < 3.70 and the negative-log IC50 (pIC50) was < 3.70.

For `CC1=NN(C(=O)c2ccc(Cl)cc2)C(=O)/C1=C/c1ccc(O)cc1`, the pEC50 was < 4.82 and the pIC50 was < 4.82.

For the compound `Nc1ncc(/C=N/O)c(NCC2(CO)CC(CCc3ccccc3)C2)n1` (configuration not stated), the pEC50 was < 5.70 and the pIC50 is 6.22.

Take `O=C(/C=C/c1ccccc1)c1cc(C(=O)/C=C/c2ccccc2)c(O)cc1O`: the pEC50 is < 3.70 and the negative-log IC50 (pIC50) was 4.16.

Consider `OC(c1cc2ccccc2o1)c1cc2ccccc2s1` (configuration not stated), for which the pEC50 is < 3.70 and the negative-log IC50 (pIC50) was 4.29.

Regarding `COC1=NC2=NC(OC)=NC3=C(Br)C=C(Br)C(=N1)N23`, the pEC50 is < 5.01 and the negative logarithm of the IC50 (pIC50) was < 5.01.

`CC(C(O)Cc1ccccc1)N(C)N=Nc1ccc([N+](=O)[O-])cc1` (configuration not stated): the pEC50 is < 3.70 and the negative-log IC50 (pIC50) is 4.70.

Turning to `O=C1CC(c2ccco2)NC(=O)N1CCCl` (configuration not stated), the pEC50 is < 3.70 and the pIC50 is < 3.70.

As for `Cc1cc(=O)oc2c3c(cc(OCc4ccccc4)c12)OC(C)(C)[C@H](OC(=O)C12CCC(C)(C(=O)O1)C2(C)C)[C@@H]3OC(=O)C12CCC(C)(C(=O)O1)C2(C)C` (some centres not stated), the pEC50 is < 3.70 and the pIC50 is 4.35.

In the case of `Cc1ccccc1-n1c(SCC(=O)NC(=O)Nc2cccc(Cl)c2)nc2c(Br)cc(Br)cc2c1=O`, the pEC50 was < 3.70 and the pIC50 was < 3.70.

In the case of `Cc1cc(C)nc(NS(=O)(=O)c2ccc(N=c3c4ccccc4n(C)c4ccccc34)cc2)n1`, the outcome was inactive.

Consider `CCN(CC)c1ccc(C(=C2C=CC(=[N+](CC)CC)C=C2)c2ccc(N(CC)CC)cc2)cc1`, for which the outcome was inactive.

Regarding `c1ccc2c(c1)SCCCS2`, the pEC50 was < 4.40 and the negative-log IC50 (pIC50) is < 4.40.

With `O=C1C(=O)N(c2ccc(Cl)c(Cl)c2)C(=O)C(=O)C1c1nc2ccccc2s1`, the outcome was inactive.

Regarding `CC(O)CCCOC(c1ccccc1)(c1ccccc1)c1ccccc1` (configuration not stated), the pEC50 was < 4.41 and the pIC50 was < 4.41.

Consider `O=Cc1c[nH]c2nccnc12`, for which the pEC50 was < 3.42 and the pIC50 was 3.43.

Regarding `Cc1ccc2cc1NC(=O)N1CCN(CC1)C(=O)Nc1cc(ccc1C)NC(=O)N1CCN(CC1)C(=O)N2`, the pEC50 is < 5.42 and the pIC50 is < 5.42.

`O=C(OC1C(OC(=O)c2cccnc2)C(OC(=O)c2cccnc2)C(OC(=O)c2cccnc2)C(OC(=O)c2cccnc2)C1OC(=O)c1cccnc1)c1cccnc1` (configuration not stated): the pEC50 is < 3.70 and the pIC50 is < 3.70.

Take `CCN(CC)C(=O)C[n+]1c2ccccc2n2cc(N)ccc21`: the pEC50 was < 3.70 and the negative logarithm of the IC50 (pIC50) is < 3.70.

Consider `Cc1cc(Br)ccc1NC1=CC(=O)C(=O)c2ccccc21`, for which the pEC50 is < 5.66 and the pIC50 is < 5.66.

For the compound `Cn1c(N)c(Br)c(=O)n(C)c1=O`, the pEC50 was < 3.70 and the negative logarithm of the IC50 (pIC50) is < 3.70.

For the compound `CC(=O)O/C=C\OC1CCCC1(c1ccccc1)c1ccccc1` (configuration not stated), the pEC50 is < 3.70 and the negative-log IC50 (pIC50) is 5.86.

With `COC1CC(n2cnc3c(N)ncnc32)OC1CO` (configuration not stated), the pEC50 was < 3.70 and the negative logarithm of the IC50 (pIC50) is < 3.70.

Regarding `O=Cc1cn(S(=O)(=O)c2ccccc2)c2ccccc12`, the result was inactive.

Turning to `CCOC(=O)Cn1c(=O)c2nc(SC)sc2n(-c2ccc(C)cc2)c1=S`, the pEC50 is < 3.70 and the pIC50 is < 3.70.

Consider `c1cc2c(s1)-c1sccc1C21OCCO1`, for which the pEC50 was < 3.70 and the negative logarithm of the IC50 (pIC50) is 3.79.

Regarding `C=C1C(C(=O)OC)[C@@]2(C)C(C(=O)OC)C(=O)C(C(=O)OC)[C@@]2(CCC)C1C(=O)OC` (some centres not stated), the pEC50 was < 3.85 and the negative-log IC50 (pIC50) is 4.14.

On to `CCC1=C(C)/C(=C/c2[nH]c(CBr)c(CC)c2C)N=C1CBr`, for which the result was inactive.

On to `CN(C)CC1CCC/C(=C\c2ccc(OC(=O)/C=C/c3ccc(Cl)c(Cl)c3)cc2)C1=O` (configuration not stated), for which the pEC50 is < 4.00 and the pIC50 is 5.84.

Turning to `CSC1=Nc2ccccc2-c2nc(-c3ccccc3)cc(-c3ccccc3)c2C1`, the pEC50 is < 3.70 and the pIC50 is < 3.70.

For `N#Cc1nc(NC(=O)c2ccccc2)sc1N`, the pEC50 is < 3.70 and the pIC50 was 4.82.

With `CC(C)CCCC(C)N` (configuration not stated), the pEC50 is < 3.70 and the pIC50 was < 3.70.

Consider `CC(C)Cn1cnc2c(Cl)nc3ccccc3c21`, for which the pEC50 is < 3.70 and the pIC50 is 4.38.

On to `O=P(O)(O)c1ccc2c(c1)OCCOCCOCCOCCO2`, for which the pEC50 is < 3.70 and the negative-log IC50 (pIC50) was < 3.70.

For `CCOC(=O)C(NC(=O)NCc1ccc(F)cc1)C(F)(F)F` (configuration not stated), the pEC50 is < 3.70 and the negative logarithm of the IC50 (pIC50) was 4.09.

On to `NCCCC[C@@H](NC(=O)[C@H](CS)NC(=O)[C@@H](N)Cc1cnc[nH]1)C(=O)N[C@H](Cc1ccccc1)C(=O)N[C@H](Cc1c[nH]c2ccccc12)C(=O)N[C@@H](Cc1c[nH]c2ccccc12)C(N)=O`, for which the pEC50 was < 3.70 and the pIC50 is < 3.70.

Regarding `C[Se]CCC1OC[C@H]2O[C@@H](n3cc(C)c(=O)[nH]c3=O)C[C@H]2N1O` (some centres not stated), the outcome was active.

For `COC(=O)c1cc(C)n(NC(=O)OC(C)(C)C)c1C`, the pEC50 is < 3.60 and the pIC50 is < 3.60.

As for `N#Cc1c(N)c(C(=O)Nc2ccc(Cl)cc2)n2c1CCC2`, the pEC50 was < 3.70 and the pIC50 was < 3.70.

Turning to `CC1=NN2C(=N)/C(=C/c3ccc(F)cc3)C(=O)N=C2S1`, the pEC50 was < 3.70 and the pIC50 is < 3.70.

With `CC(=O)O[C@H]1CCN2C(=O)C=CC(OCc3ccccc3)C12` (some centres not stated), the pEC50 is < 3.08 and the negative logarithm of the IC50 (pIC50) is 3.10.

With `O=C1C(c2cnc3ccccc3n2)=C(O)c2ccccc21`, the pEC50 was < 5.58 and the negative-log IC50 (pIC50) is < 5.58.

Regarding `CC1NC(=O)CNC(=O)CNC(=O)C(Cc2ccc(O)cc2)NC(=O)C(C(C)C)NC(=O)C(C)NC1=O` (configuration not stated) (cyclo(GGAAVY); configuration not given here), the outcome was inactive.

With `O=C(CC1C=CCS1(=O)=O)NCc1ccccc1` (configuration not stated), the pEC50 was < 4.01 and the pIC50 was < 4.01.

Take `Cc1ccc(NC(=O)CC2SC(N)=NC2=O)cc1C` (configuration not stated): the result was inactive.

With `Cn1c(=O)c2c(nc(N/N=C/c3cccc(Br)c3)n2C)n(C)c1=O`, the pEC50 is < 3.70 and the negative logarithm of the IC50 (pIC50) is < 3.70.

Turning to `Cc1cn(C2CCC(CO)(C(F)(F)F)O2)c(=O)[nH]c1=O` (configuration not stated), the pEC50 was < 3.70 and the pIC50 is < 3.70.

Regarding `O=C(NCc1ccccc1)c1cc2ccc(O)c(O)c2cn1`, the pEC50 is < 4.00; the negative logarithm of the IC50 (pIC50) was 5.77 and < 5.20.

For the compound `Cc1cc(C)nc(NS(=O)(=O)c2ccc(NNC(=O)c3cccc4c(NNc5ccc(S(=O)(=O)Nc6nc(C)cc(C)n6)cc5)c5ccccc5nc34)cc2)n1`, the pEC50 was < 3.70 and the pIC50 was 4.66.

On to `CCOC(=O)Cc1nnc2n(-c3ccccc3)c(=O)c3ccccc3n12`, for which the pEC50 is < 4.00 and the pIC50 was < 4.00.

Regarding `CCOc1nnnc2nc[nH]c12`, the pEC50 is < 3.70 and the pIC50 is 4.15.

Regarding `C/C=C/C=Nc1c(C#N)c2n(c1C(=O)Nc1ccc(C)cc1)CCC2`, the pEC50 is < 4.30 and the pIC50 is < 4.30.

Take `COC1OC2COc3ccccc3OC2C2C1N2C(N)=O` (configuration not stated): the outcome was inactive.

In the case of `COCCC(NC(=O)C(CC(C)C)NC(=O)OC(C)(C)C)C(=O)OC` (stereo not drawn) (Boc-Leu-[hSer](Me)-OMe; configuration not given here), the pEC50 was < 3.70 and the negative-log IC50 (pIC50) was 4.57.

For `O=C1CNC(=O)c2ncn(C3OC(CO)C(O)C3O)c2N1` (configuration not stated), the pEC50 was < 3.62 and the negative-log IC50 (pIC50) is < 3.62.

As to `CCc1cc(Cc2cc(CC)c(NC(=O)C(=O)CC(=O)c3sc(-c4cccnc4)nc3C)c(CC)c2)cc(CC)c1NC(=O)C(=O)CC(=O)c1sc(-c2cccnc2)nc1C`, the pEC50 is < 3.98 and the pIC50 is < 3.98.

The values are drawn from PubChem BioAssay AID179 (DTP/NCI, 2004).
